A word on the pIC50: it is the IC50 on a negative log10 scale, so that one unit is a factor of ten.

The text below walks through data of US9718790B2, “Triazine derivative and pharmaceutical composition having an analgesic activity comprising the same” (SHIONOGI & CO., LTD., priority 2010, dated 2017).

The target in the assay is human P2X3 receptor (Homo sapiens (Human), UniProt P56373). As to the kind of experiment: Evaluation of human P2X3 receptor inhibitory activity (Fluo-3 calcium fluorescence, FDSS 3000, ATP stimulation).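 Further: stimulus was 50 nM ATP with fluorescence followed for 3 min, and the response per well was peak post-ATP fluorescence divided by the reading at measurement start.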 The class given is cell-based.
Chain of human P2X3 receptor (P56373 whole entry): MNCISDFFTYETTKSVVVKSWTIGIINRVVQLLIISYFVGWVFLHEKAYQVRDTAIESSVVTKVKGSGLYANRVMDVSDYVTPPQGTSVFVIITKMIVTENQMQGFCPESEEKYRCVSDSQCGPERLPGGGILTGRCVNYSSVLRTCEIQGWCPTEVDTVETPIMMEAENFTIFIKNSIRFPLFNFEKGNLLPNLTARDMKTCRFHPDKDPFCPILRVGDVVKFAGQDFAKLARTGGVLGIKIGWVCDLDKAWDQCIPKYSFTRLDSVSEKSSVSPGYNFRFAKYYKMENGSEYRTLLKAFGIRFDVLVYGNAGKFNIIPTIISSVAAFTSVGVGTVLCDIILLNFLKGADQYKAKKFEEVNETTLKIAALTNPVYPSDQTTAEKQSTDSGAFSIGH
Where [1] appears, read: C6BU-1 cells stably expressing human P2X3 receptor.
The mark [2] stands for this setting: human P2X3 receptor, Test Example 1.

pIC50: −log10 of the molar value.

`CCn1c(=O)[nH]/c(=N\c2ccc(Oc3cc(C(=O)O)n[nH]3)cc2)n(Cc2ccc(Cl)cc2)c1=O` [Compound I-2194]: the pIC50 under setting [1] was 7.28.

Take `CCn1c(=O)[nH]/c(=N\c2ccc(Oc3cccc4ocnc34)c(Cl)c2)n(Cc2ccc(Cl)cc2)c1=O` [Compound I-2195]: under setting [1], the pIC50 was 7.85.

On to `CCn1c(=O)[nH]/c(=N\c2ccc(Oc3cccc4[nH]ncc34)c(Cl)c2)n(Cc2ccc(Cl)cc2)c1=O` [Compound I-2196], for which the negative-log IC50 (pIC50) under setting [1] was 6.35.

As for `CCn1c(=O)[nH]/c(=N\c2ccc(OCCN(C)C(C)=O)cc2)n(Cc2ccc(Cl)cc2)c1=O` [Compound I-2197], under setting [1], the pIC50 was 6.67.

On to `CCn1c(=O)[nH]/c(=N\c2ccc(OCc3nnc(C)o3)cc2)n(Cc2ccc(Cl)cc2)c1=O` [Compound I-2199], for which the pIC50 under setting [1] is 6.29.

For the compound `CCn1c(=O)[nH]/c(=N\c2ccc(OCc3noc(C)n3)cc2)n(Cc2ccc(Cl)cc2)c1=O` [Compound I-2200], the negative logarithm of the IC50 (pIC50) under setting [1] is 6.26.

Take `CCn1c(=O)[nH]/c(=N\c2ccc(OCCc3ccccn3)cc2)n(Cc2ccc(Cl)cc2)c1=O` [Compound I-2201]: the pIC50 under setting [1] is 7.04.

`CCCn1c(=O)[nH]/c(=N\c2ccc(Oc3ccc(C(N)=O)nc3)cc2)n(Cc2ccc(Cl)cc2)c1=O` [Compound I-2203]: the pIC50 under setting [1] was 9.00.

In the case of `CCn1c(=O)[nH]/c(=N\c2ccc(Oc3cncc(C(=O)OC)c3)cc2)n(CC2CCC(C)(C)CC2)c1=O` [Compound I-2204], the pIC50 under setting [1] is 7.55.

For the compound `CCn1c(=O)[nH]/c(=N\c2ccc(Oc3ccnc(C(=O)OC)c3)cc2)n(CC2CCC(C)(C)CC2)c1=O` [Compound I-2205], under setting [1], the pIC50 was 8.05.

With `CCn1c(=O)[nH]/c(=N\c2ccc(Oc3cc(C(=O)OC)ncn3)cc2)n(Cc2ccc(Cl)cc2)c1=O` [Compound I-2206], the pIC50 under setting [1] is 7.92.

Consider `CCn1c(=O)[nH]/c(=N\c2ccc(Oc3cncc(C(=O)O)c3)cc2)n(CC2CCC(C)(C)CC2)c1=O` [Compound I-2207], for which the pIC50 under setting [1] was 7.16.

Turning to `CCn1c(=O)[nH]/c(=N\c2ccc(Oc3ccnc(C(=O)O)c3)cc2)n(CC2CCC(C)(C)CC2)c1=O` [Compound I-2208], the negative logarithm of the IC50 (pIC50) under setting [1] is 7.92.

On to `CCn1c(=O)[nH]/c(=N\c2ccc(Oc3cc(C(=O)O)ncn3)cc2)n(Cc2ccc(Cl)cc2)c1=O` [Compound I-2209], for which the pIC50 under setting [1] is 8.10.

Regarding `CCn1c(=O)[nH]/c(=N\c2ccc(Oc3cc(C(=O)OC)nc(Cl)n3)cc2)n(Cc2ccc(Cl)cc2)c1=O` [Compound I-2210], under setting [1], the pIC50 is 7.85.

Consider `CCn1c(=O)[nH]/c(=N\c2ccc(Oc3ccnc(C(=O)O)c3)cc2)n(Cc2ccc(Cl)cn2)c1=O` [Compound I-2211], for which, under setting [1], the negative logarithm of the IC50 (pIC50) was 7.85.

For `CCn1c(=O)[nH]/c(=N\c2ccc(Oc3cnc(C(=O)OC)cn3)cc2)n(Cc2ccc(Cl)cc2)c1=O` [Compound I-2212], the pIC50 under setting [1] is 8.70.

Take `CCn1c(=O)[nH]/c(=N\c2ccc(Oc3ccnc(NC(=O)NC4CC4)c3)cc2)n(Cc2ccc(Cl)cc2)c1=O` [Compound I-2213]: the pIC50 under setting [1] is 8.70.

As for `CCn1c(=O)[nH]/c(=N\c2ccc(Oc3ccc(N)nc3)cc2)n(Cc2ccc(Cl)cc2)c1=O` [Compound I-2214], under setting [1], the negative logarithm of the IC50 (pIC50) was 7.66.

With `O=C(O)c1cncc(Oc2ccc(/N=c3\[nH]c(=O)n(CC(F)F)c(=O)n3Cc3ccc(Cl)cc3)cc2)c1` [Compound I-2215], the pIC50 under setting [1] was 8.22.

Regarding `CCn1c(=O)[nH]/c(=N\c2ccc(Oc3ccnc(NC(C)=O)c3)cc2)n(Cc2ccc(Cl)cc2)c1=O` [Compound I-2216], the pIC50 under setting [1] is 8.30.

For `CCC(=O)Nc1cc(Oc2ccc(/N=c3\[nH]c(=O)n(CC)c(=O)n3Cc3ccc(Cl)cc3)cc2)ccn1` [Compound I-2217], the pIC50 under setting [1] is 8.22.

Consider `CCn1c(=O)[nH]/c(=N\c2ccc(Oc3ccc(C(=O)OC)c(F)c3)cc2)n(Cc2ccc(Cl)cc2)c1=O` [Compound I-2218], for which the negative-log IC50 (pIC50) under setting [1] is 8.52.

Take `CCn1c(=O)[nH]/c(=N\c2ccc(Oc3cc(F)cc(C(=O)OC)c3)cc2)n(Cc2ccc(Cl)cc2)c1=O` [Compound I-2219]: the pIC50 under setting [1] is 7.85.

In the case of `CCn1c(=O)[nH]/c(=N\c2ccc(Oc3nc(OC)nc(OC)n3)cc2)n(Cc2ccc(Cl)cc2)c1=O` [Compound I-2220], under setting [1], the pIC50 is 7.43.

Regarding `CCn1c(=O)[nH]/c(=N\c2ccc(Oc3nc(O)nc(O)n3)cc2)n(Cc2ccc(Cl)cc2)c1=O` [Compound I-2222], the negative-log IC50 (pIC50) under setting [1] is 8.30.

Turning to `CCn1c(=O)[nH]/c(=N\c2ccc(Oc3cc(F)cc(C(=O)O)c3)cc2)n(Cc2ccc(Cl)cc2)c1=O` [Compound I-2223], under setting [1], the pIC50 was 8.22.

`CCn1c(=O)[nH]/c(=N\c2ccc(Oc3cccc(/C=C/C(=O)OC)c3)cc2)n(Cc2ccc(Cl)cc2)c1=O` [Compound I-2224]: the pIC50 under setting [2] was 7.48.

With `CCn1c(=O)[nH]/c(=N\c2ccc(Oc3cccc(CCC(=O)OC)c3)cc2)n(Cc2ccc(Cl)cc2)c1=O` [Compound I-2225], the negative-log IC50 (pIC50) under setting [2] is 7.21.

As to `CCn1c(=O)[nH]/c(=N\c2ccc(Oc3ccc(C(=O)O)c(F)c3)cc2)n(Cc2ccc(Cl)cc2)c1=O` [Compound I-2226], the pIC50 under setting [2] was 7.92.

As to `CCn1c(=O)[nH]/c(=N\c2ccc(Oc3cc(C#N)ccn3)cc2)n(Cc2ccc(Cl)cc2)c1=O` [Compound I-2227], the pIC50 under setting [2] is 8.40.

For `Cc1cc(Oc2ccc(/N=c3\[nH]c(=O)n(C[C@@H]4COC(C)(C)O4)c(=O)n3Cc3ccc(Cl)cc3)cc2)no1` [Compound I-2228], the pIC50 under setting [2] was 8.30.

Turning to `Cc1cc(Oc2ccc(/N=c3\[nH]c(=O)n(C[C@@H](O)CO)c(=O)n3Cc3ccc(Cl)cc3)cc2)no1` [Compound I-2229], the pIC50 under setting [2] was 7.64.

Regarding `CCCn1c(=O)[nH]/c(=N\c2ccc(Oc3ccc(C#N)nc3)cc2)n(Cc2ccc(Cl)cc2)c1=O` [Compound I-2230], the pIC50 under setting [2] was 8.70.

For `CCn1c(=O)[nH]/c(=N\c2ccc(Oc3cccc(/C=C/C(=O)O)c3)cc2)n(Cc2ccc(Cl)cc2)c1=O` [Compound I-2231], the pIC50 under setting [2] was 8.52.

On to `CCn1c(=O)[nH]/c(=N\c2ccc(Oc3cccc(CCC(=O)O)c3)cc2)n(Cc2ccc(Cl)cc2)c1=O` [Compound I-2232], for which the negative-log IC50 (pIC50) under setting [2] is 7.89.

Take `CCn1c(=O)[nH]/c(=N\c2ccc(Oc3cc(F)cc(C(N)=O)c3)cc2)n(Cc2ccc(Cl)cc2)c1=O` [Compound I-2233]: the pIC50 under setting [2] is 8.70.

On to `CCn1c(=O)[nH]/c(=N\c2ccc(Oc3ccc(C(N)=O)c(F)c3)cc2)n(Cc2ccc(Cl)cc2)c1=O` [Compound I-2234], for which, under setting [2], the negative logarithm of the IC50 (pIC50) was 8.70.

As for `CCn1c(=O)[nH]/c(=N\c2ccc(Oc3ccc(F)c(C(N)=O)c3)cc2)n(Cc2ccc(Cl)cc2)c1=O` [Compound I-2235], the pIC50 under setting [2] was 8.40.

Take `CCn1c(=O)[nH]/c(=N\c2ccc(Oc3cncc(C(N)=O)c3)cc2)n(Cc2ccc(Cl)cn2)c1=O` [Compound I-2236]: the pIC50 under setting [2] was 7.21.

With `CCn1c(=O)[nH]/c(=N\c2ccc(Oc3ccnc(C(N)=O)c3)cc2)n(Cc2ccc(Cl)cn2)c1=O` [Compound I-2237], under setting [2], the negative logarithm of the IC50 (pIC50) is 7.70.

Consider `CCn1c(=O)[nH]/c(=N\c2ccc(Oc3cccc(C(=O)OC)n3)cc2)n(Cc2ccc(Cl)cn2)c1=O` [Compound I-2238], for which, under setting [2], the pIC50 is 6.83.

Turning to `CCn1c(=O)[nH]/c(=N\c2ccc(Oc3cccc(C(=O)O)n3)cc2)n(Cc2ccc(Cl)cn2)c1=O` [Compound I-2239], under setting [2], the pIC50 is 7.31.

Regarding `CCn1c(=O)[nH]/c(=N\c2ccc(Oc3cccc(C(N)=O)n3)cc2)n(Cc2ccc(Cl)cn2)c1=O` [Compound I-2240], under setting [2], the pIC50 is 7.68.
